Paper PMC9638024, “Functional rewiring of G protein-coupled receptor signaling in human labor” (Cell Reports, 2022)

Target: T1, EP2 (prostaglandin E2 receptor EP2) (Homo sapiens, UniProt P43116)
T1 construct: gene PTGER2; FLAG-EP2 stably expressed in HEK 293 cells
Experiment: cAMP accumulation dose-response in HEK […] cells stably expressing FLAG-EP2 (agonist)
Assay type: cell-based

T1 sequence (P43116 whole entry): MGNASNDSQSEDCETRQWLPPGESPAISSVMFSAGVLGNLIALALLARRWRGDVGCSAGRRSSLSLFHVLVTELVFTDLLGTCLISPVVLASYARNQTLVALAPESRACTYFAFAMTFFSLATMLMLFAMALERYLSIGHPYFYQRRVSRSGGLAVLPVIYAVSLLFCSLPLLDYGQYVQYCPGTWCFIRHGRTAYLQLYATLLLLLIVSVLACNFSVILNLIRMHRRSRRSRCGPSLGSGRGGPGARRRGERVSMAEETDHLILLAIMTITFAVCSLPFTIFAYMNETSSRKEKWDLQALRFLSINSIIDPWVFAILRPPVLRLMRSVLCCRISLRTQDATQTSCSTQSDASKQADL

CC(C)OC(=O)COc1cccc(NC(=O)c2cc(-c3cccc(F)c3)ccc2F)c1 [PGN9856i]
EC50: 2.11 nM
